Values of other authors as cited in PMC9410468 (Marine Drugs, 2022).

Test system: rats
Conditions: rats; selective α3β4 nAChR antagonists; cited from earlier work
From the text: In the mammalian brain, the medial habenula (MHB) expresses high nAChR levels. Recently, α3-containing nAChRs present in the medial habenula have attracted substantial attention because of their potential role in influencing nicotine addiction. In addition, recent studies have shown that the gene polymorphism of the α3 and β4 subunits in vivo are related to nicotine addiction and drug abuse. The α3β4 nAChR subtype is mainly located in the MHB, […] (IPN), and fasciculus retroflexus (FR) of the rat brain. In addition, it is also expres ...

## COCC[C@H]1CC2CN3CCc4c([nH]c5ccccc45)[C@](C(=O)OC)(C2)[C@H]13 [18-methoxycoronaridine (18-MC), 18-methoxycoronaridine]
  effect on nicotine self-administration (in words): reduce nicotine self-administration in rats
